The supplement of paper PMC11451515

Key:
Test in all cases: AUC of viability dose-response curve (% viability x log10 dose units); higher = less sensitive
Details in all cases: 48 h
[1] = test system: P12-Ichikawa
Summary of the method: (§1)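 Medium-adapted leukemia cells in 1536-well plates, at 500 or 1000 cells/well, were incubated for 48 h at 37°C with library compounds in DMSO at 11 threefold doses from 47 μM to 0.79 nM. CellTiter-Glo One luminescence normalised per plate to DMSO and cell-free wells was fitted with a four-parameter log-logistic model over log10 doses. Area under the curve was integrated from this fit by trapezoidal rule, with curves beyond full viability scaled and failed quality-control curves removed.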

[2] = test system: NOMO1
Summary of the method: as §1

[3] = test system: SEM cells
Summary of the method: as §1

[4] = RPMI 5 mM glucose + 10% dialyzed FBS

SMILES | AUC of viability dose-response curve ([1]; HPLM + 10% dialyzed FBS) | AUC of viability dose-response curve ([1]; RPMI 5 mM glucose + 10% FBS) | AUC of viability dose-response curve [1, 4] | AUC of viability dose-response curve ([2]; HPLM + 10% dialyzed FBS) | AUC of viability dose-response curve ([2]; RPMI 5 mM glucose + 10% FBS) | AUC of viability dose-response curve [2, 4] | AUC of viability dose-response curve ([3]; HPLM + 10% dialyzed FBS) | AUC of viability dose-response curve ([3]; RPMI 5 mM glucose + 10% FBS) | AUC of viability dose-response curve [3, 4]
Oc1ccc([C@@H]2Oc3ccc(O)cc3[C@@H]3CCC[C@@H]32)cc1 | 394 | 372 | 349 | 412 | 423 | 406 |  |  | 
CC(C)[N+]1(C)C2CCC1CC(OC(=O)C(CO)c1ccccc1)C2.O.[Br-] (stereo not drawn) | 383 | 427 | 417 | 423 | 457 | 450 | 449 | 423 | 422
CC(C)Cn1cnc2c(N)nc3ccccc3c21 | 442 | 451 | 463 | 450 | 466 | 448 | 459 | 452 | 455
COc1cc2c(Nc3ccc(Cl)c(Cl)c3F)ncnc2cc1OC[C@@H]1C[C@@H]2CN(C)C[C@@H]2C1 | 444 | 453 | 444 | 421 | 450 | 447 | 384 | 443 | 438
CC(C)(O)C(=O)Nc1ccc([N+](=O)[O-])c(C(F)(F)F)c1 | 404 | 409 | 438 | 368 | 355 | 371 | 465 | 449 | 448
COc1ccc(C2(C#N)CCC(C(=O)O)CC2)cc1OC1CCCC1 (stereo not drawn) | 475 | 466 | 464 | 465 | 434 | 471 | 439 | 443 | 443
COc1ccc([S+](=O)([O-])Nc2cccnc2Nc2ccc(O)cc2)cc1 | 372 | 377 | 388 | 387 | 379 | 410 |  |  | 
C1COC(NC(C2CC2)C2CC2)=N1 | 425 | 459 | 404 | 428 | 415 | 408 |  |  | 
CCN(CC)CCCC(C)Nc1nc(C)cc(Nc2ccc3nc(C)cc(N)c3c2)n1 (stereo not drawn) | 461 | 464 | 469 | 464 | 470 | 468 |  |  | 
CS[C@H]1SC[C@@H]2C(=O)N(C)[C@H](C(C)C)C(=O)OC[C@H](NC(=O)c3cnc4ccccc4n3)C(=O)N[C@H](C)C(=O)N(C)[C@H]1C(=O)N(C)[C@H](C(C)C)C(=O)OC[C@H](NC(=O)c1cnc3ccccc3n1)C(=O)N[C@H](C)C(=O)N2C | 176 | 148 | 140 | 140 | 142 | 141 |  |  | 
CCC(C1CCC(C)C(O1)C(C)C(O)C(C)C(=O)C(CC)C2OC\3(O[C@]4(CC[C@@](C)(O4)C5CC[C@@](O)(CC)C(C)O5)C(O)\C=C3)C(C)CC2C)C([O-])=O (stereo partly drawn) | 426 | 403 | 382 |  |  |  |  |  | 
